The conditions of data set [1]: in vivo; cited from earlier work.
The test system of data set [2] is Jensen sarcoma. Kind of data set: Growth deceleration / antitumor activity, Jensen sarcoma. Type of data set: in vivo. The settings on record: peroral administration. The source says: (§1) An antiblastic effect is caused by products of condensation of aldehydes of the nitrofuran series with (β-hydrazinoethyl)pyridine, 3-hydrazino-4-amino-1,2,4-triazole [Giller S. A., Kalnberga R. Yu., Zidermane A. A. et al. In the book "Methods of Synthesis and Search for Antitumor Preparations" (in Russian). Iss. 2. M. 1967. pp. 75-81; Giller S. A. et al. In the book "Furozolidine". (in Russian). Riga, 1962. pp. 5-18; Duavarte A. Zh., Zidermane A. A., Kravchenko I. M. et al. In the book "Proceedings of the 1st All-Union Conference on Chemotherapy of Malignant Tumors." Riga. 1968. pp. 216-217; Duavarte A. Zh. et al. In the book "Antitumor Compounds of the 5-nitrofuran Series." (in Russian). Riga, 1972. pp. 17-30)] and 5-aminobenzimidazol [Fuska J., Fuskova A., Jurasek A. "Neoplasma (Bratisl.)". 1973. v. 20. pp. 171-179].
(§2) "J. Pharm. Soc. Japan." 1964, 84(6). pp. 537-543; K. Miura, I. Okada. "Chem. Pharm. Bull." 1965. 13 (15). pp. 525-528].

Data set [3] deals with Pliss lymphosarcoma. Kind of data set: Antitumor activity, Pliss lymphosarcoma. In kind it is in vivo. The settings on record: peroral administration.
Excerpt: as §2

Data set [4] relates to Walker carcinosarcoma. Kind of data set: Growth deceleration / antitumor activity, Walker carcinosarcoma. In kind it is in vivo. The settings on record: peroral administration.
Excerpt: as §1, §2

Data set [5] concerns Walker carcinosarcoma. The settings on record: cited from earlier work.
In data set [6] the test system is Jensen sarcoma. The settings on record: cited from earlier work.
For data set [7] the following is noted: in vivo; cited from earlier work. The source holds these as a separate data set.
The subject of data set [8] is Ehrlich ascitic tumor. Kind of data set: Antitumor activity, life prolongation of mice with Ehrlich ascitic tumor. Type of data set: in vivo. As for the experimental part:
The experiment was conducted as follows. 10^6 cells of Erlich tumuor were injected in common white mice intraperitoneally, the dose being given per each animal. […] Each dose of the preparation was tested in six mice. The control group included 18 mice. Giniquine solution was prepared by dissolving the substance ex tempore in distilled water or in a buffer. The effect of the preparation is shown on charts 1,2,3.

For data set [9], the system named is lymphatic leukemia L 5178. Kind of data set: Antitumor activity, life prolongation, lymphatic leukemia L 5178. Type of data set: in vivo, mice. The method, then: (§3) Apart from the tests on Ehrlich ascitic tumor, giniquine was studied on twelve more inoculated tumors. Seven tumors (melanoma B16, sarcoma AK, large intestine carcinoma acatol-1, sarcoma 180, adenocarcinoma 755, Lewis lung carcinoma and sarcoma 37) were inoculated subcutaneously with 50 mg of tumoral cells per mouse. Four tumors (lymphatic leukemies L 5178, L 5178Y, L 1210 and P-388) were inoculated intraperitoneally with 10^6 cells per mouse. One tumor (La, hemocytoblastosis) was inoculated intraperitoneally by injecting 50 mg of cell suspension of spleen and liver of mice suffering La hemocytoblastosis, per mouse. Giniquine was injected intraperitoneally five times for seven days: 1,2,3,4,7 days or 3,4,5,6,7 days after the implantation of tumor. The rate of deceleration of the tumor growth was established 14 days after the ultimate injection of giniquine; life of test animals was recorded for 60 days.

For data set [10], the system named is adenocarcinoma 755. Kind of data set: Antitumor activity, adenocarcinoma 755. Type of data set: in vivo, mice. The settings on record: daily doses of 10 and 17 mg/kg. The method, then:
as §3

The subject of data set [11] is sarcoma 180. Kind of data set: Antitumor activity, sarcoma 180. Type of data set: in vivo, mice. The method, then: as §3
Data set [12] relates to Ehrlich ascitic tumor. Kind of data set: Influence of fluorafur on antitumor activity of giniquine, Ehrlich ascitic tumor. In kind it is in vivo, mice. As for the experimental part:
In some experiments the influence of the known preparation fluorofur on the antitumoral activity of giniquine was studied. […] The tests were made on Ehrlich ascitic tumor. The preparations were injected 1,2,3,4 and 7 days after the implantation of tumor. Giniquine was injected intraperitoneally and fluorafur-subcutaneously.
giniquine was injected intraperitoneally, and fluorafursubcutaneously.

The subject of data set [13] is sarcoma 37. Kind of data set: Antitumor activity, life prolongation, sarcoma 37. Type of data set: in vivo, mice. The method, then:
as §3

For data set [14], the system named is acatol-1. Kind of data set: Antitumor activity, large intestine adenocarcinoma acatol-1. Type of data set: in vivo, mice. The method, then: as §3
Data set [15] concerns sarcoma AK. Kind of data set: Antitumor activity, sarcoma AK. Type of data set: in vivo, mice. The method, then: as §3
Data set [16] has as its system La hemocytoblastosis. Kind of data set: Antitumor activity, La hemocytoblastosis. Type of data set: in vivo, mice. The settings on record: 10 mg/kg. The method, then:
as §3

Data set [17] concerns melanoma B16. Kind of data set: Antitumor activity, melanoma B16. Type of data set: in vivo, mice. The settings on record: 17 mg/kg. The method, then:
as §3, with “Giniquine was injected intraperitoneally five times for seven days: 1,2,3,4,7 days or 3,4,5,6,7 days after the implantation of tumor.” left out

Data set [18] deals with Lewis lung carcinoma. Kind of data set: Antitumor / antimetastatic activity, Lewis lung carcinoma. In kind it is in vivo, mice. The settings on record: daily doses of 6 and 10 mg/kg. The method, then:
as §3

Regarding `NC(=O)c1cc(C=Cc2ccc([N+](=O)[O-])o2)nc2ccccc12` [2-[2'-(5"-nitrofuryl-2")vinyl]quinoline-4-carboxylic acid amide], in [1], the antitumoral activity entry is recorded as “a very narrow range of antitumoral activity”. Moreover, the antitumor activity entry in data set [2], in data set [3] and in [4] was “not found any antitumor activity” each time.

Turning to `O=Cc1ccc([N+](=O)[O-])o1` [5-nitrofurfural], the “activity compared with 5-nitrofuran” value in data set [5] and in data set [6] was “about the same activity” each time. The “acute toxicity compared with 5-nitrofuran” value in [7] is “a higher acute toxicity”.

For `CCN(CC)CCCC(C)NC(=O)c1cc(C=Cc2ccc([N+](=O)[O-])o2)nc2ccccc12` (stereo not drawn) [2-[2'-(5"-nitrofuryl-2")vinylquinoline]-4-carboxylic acid (α-methyl-δ-diethylaminobutyl)amide dibromide], the prolongation of life in [8] (single intraperitoneal injection, 28 mg/kg, 7 days after inoculation) was 85%.

Take `CCN(CC)CCCC(C)NC(=O)c1cc(C=Cc2ccc([N+](=O)[O-])o2)nc2ccccc12` (stereo not drawn) [2-[2'-(5"-nitrofuryl-2")vinyl]quinoline-4-carboxylic acid (α-methyl-δ-diethylaminobutyl)amide diphosphate]: the prolongation of life result is “up to 130%” in data set [9] (lymphatic leukemia); 140 to 180% in data set [8] (3-5 intraperitoneal injections, daily doses 10 to 28 mg/kg); “up to 20%” in data set [10]; “up to 20%” in data set [11] (daily doses of 10 and 17 mg/kg).

As to `CCN(CC)CCCC(C)NC(=O)c1cc(C=Cc2ccc([N+](=O)[O-])o2)nc2ccccc12` (stereo not drawn) [2-[2'-(5"-nitrofuryl-2")vinyl]quinoline-4-carboxylic acid (α-methyl-δ-diethylaminobutyl)amide chloride], the prolongation of life in data set [8] (single intraperitoneal injection, 6 mg/kg, 7 days after inoculation) worked out at 85%.

As for `O=c1[nH]c(=O)n(C2CCCO2)cc1F` (stereo not shown) [fluorafur, reference compound], the Life prolongation in data set [12] (Test No. 1, fluorafur 39.0 mg/kg daily) is 35%; in [12] (Test No. 1, fluorafur 65.0 mg/kg daily) it was 37%; in [12] (Test No. 1, fluorafur 108.0 mg/kg daily), 40%; in [12] (Test No. 1, fluorafur 180.0 mg/kg daily) it was 52%; in [12] (Test No. 2, fluorafur 39.0 mg/kg daily), 18%; in data set [12] (Test No. 2, fluorafur 65.0 mg/kg daily), -5%. Moreover, the Life prolongation is -17% in data set [12] (Test No. 2, fluorafur 108.0 mg/kg daily) and -33% in [12] (Test No. 2, fluorafur 180.0 mg/kg daily).

`CCN(CC)CCCC(C)NC(=O)c1cc(C=CC=Cc2ccc([N+](=O)[O-])o2)nc2ccccc12` (stereo not drawn) [2-[4'-(5"-nitrofuryl-2")-1,3-butadienyl]quinoline-4-carboxylic acid (α-methyl-δ-diethylaminobutyl)amide diphosphate]: the prolongation of life entry in data set [13] (daily dose of 17 mg/kg, intraperitoneal) was “up to 120%”; in data set [8] (doses of 3.6-10 mg/kg), 60 to 160%. For the same compound, in data set [9] (lymphatic leukemia L 5178), the “antiblastic activity / sensitivity (in words)” value is recorded as “a certain sensitivity”. The “antitumor effect / sensitivity (in words)” value in data set [14] (acatol-1) and in [11] (sarcoma 180) was “a certain sensitivity” in each case.

Consider `O=C(NCCCO)c1cc(C=Cc2ccc([N+](=O)[O-])o2)nc2ccccc12` [2-[2'-(5"-nitrofuryl-2")vinyl]quinoline-4-carboxylic acid (γ-hydroxypropyl)amide], for which the prolongation of life result in data set [15] (2.8 mg/kg) is recorded as “up to 20%”; in data set [13] (12.5 mg/kg), 90%; in data set [9] (lymphatic leukemia L 5178), “up to 40%”; in data set [8] (7.5 mg/kg to 12.5 mg/kg, five injections), “up to 120%”.

For `O=C(NCCCO)c1cc(C=CC=Cc2ccc([N+](=O)[O-])o2)nc2ccccc12` [[4'-(5"-nitrofuryl-2")-1,3-butadienyl]quinoline-4-carboxylic acid (γ-hydroxypropyl)amide], the prolongation of life result in data set [16] was “about 20%”; in data set [9] (1 mg/kg) it was “up to 40%”; in [8] (17 mg/kg), “up to 80%”; in data set [14] (10 mg/kg), “about 20%”.

For `O=[N+]([O-])c1ccco1` [Example 5-nitrofuran, 5-nitrofuran], the deceleration of growth in data set [5] and in [6] was 39-51% in each case.

Take `O=P1(N(CCCl)CCCl)NCCCO1` (stereo not shown) [cyclophosphane, reference compound]: the “increase in mice life” value in data set [8] (Ehrlich ascitic tumor) came to 0%.

On to `CCN(CC)CCCC(C)NC(=O)c1cc(C=Cc2ccc([N+](=O)[O-])o2)nc2ccccc12` (stereo not drawn) [2-[2'-(5"-nitrofuryl-2")vinyl]quinoline-4-carboxylic acid (α-methyl-δ-diethylaminobutyl)amide], for which the prolongation of life entry is listed as “up to 25%” in [17]; 30% in [18]; “up to 20%” in data set [15] (sarcoma AK); 30 to 140% in data set [9] (6 to 28 mg/kg); 70 to 130% in data set [8] (three injections, 10 and 17 mg/kg); “up to 20%” in data set [11] (sarcoma 180).

These data come from US4201784A, “Substituted 2-[2'-(5"-nitrofuryl-2")vinyl-and 4'-(5"-nitrofuryl-2"-1,3-butadieryl]quinoline-4-carboxylic acid amides and salts thereof” (Institut Organicheskogo Sinteza Akademii Nauk Latviiskoi SSR, priority 1977, dated 1980).
